One molecule from PMC10107299, “Neutralizing the Impact of the Virulence Factor LecA from Pseudomonas aeruginosa on Human Cells with New Glycomimetic Inhibitors” (Angewandte Chemie (International Ed. in English), 2023) can be followed below.

In general, half-life refers to the time needed for the level to fall by half in the phase considered. A word on the AUC: it is the area under the concentration-time curve, a measure of exposure. The clearance is the rate of elimination divided by the concentration. A lower clearance goes with inefficient removal. What is called Vd is the apparent volume that relates the amount in the body to the concentration in plasma or blood.

A short description of the series: In vivo pharmacokinetic study in rats. More on the design: species or system Sprague-Dawley rats. Here is the method: Encouraged by these promising in vitro results, an in vivo pharmacokinetic study was conducted for H2 and L2 in mice (1 mg kg^−1, i. v.) and in rats for L2 (10 mg kg^−1, i. v.). Compound concentrations were monitored in plasma and urine (Figure 6). H2 and L2 were cleared from mouse plasma within 1 h. Both compounds rapidly reached high concentrations in urine, several orders of magnitude above their respective in vitro LecA binding affinity. In fact, concentrations above the K ds were detected over the entire observation period of 5 h. […] In rats, higher amounts of L2 were detected both in plasma and urine, not solely corresponding to the 10‐fold increased dose. […] Importantly, high levels of L2 were present in rat urine even 24 h after administration. […]
Pharmacokinetic studies in rat
The in vivo part of the study was performed by the CRO Pharmacelsus (Saarbrücken, Germany). For rat in vivo pharmacokinetic studies, male Sprague-Dawley rats (Janvier-Labs, France) with 350 g - 400 g body weight were used. All experimental procedures were approved by and conducted in accordance with the regulations of the local Animal Welfare authorities (Landesamt für Gesundheit und Verbraucherschutz, Abteilung Lebensmittel- und Veterinärwesen, Saarbrücken) and any clinical signs of toxicity and any changes in behavior of the animals were recorded. Food and water were provided ad libitum throughout the study. Rats were provided with a catheter in the jugular vein 2 - 3 days prior to drug administration and blood sampling. According to national animal welfare guidelines, rats were treated once with Carprofen (5 mg/kg) directly after catheterization. Catheter was rinsed daily with K3EDTA. L2 was dissolved in PBS (pH 7.4) and administered i.v. in individual PK studies (N = 3) at 10 mg/kg in a volume of 2 mL/kg. At t = 0 h, rats were placed into metabolic cages for drug administration and immediate collection of urine and faeces samples. Further excretion products were collected during 0 - 2 h, 2 - 4 h, 4 - 8 h and 8 - 24 h. Excreta sample volumes were determined and immediately stored at -80 °C until analysis by LC-MS. 80 µL K3EDTA-treated blood was collected at t = 0.083 h, 0.25 h, 0.5 h, 1 h, 2 h, 4 h, 6 h, 8 h and 24 h post dose and samples were stored on ice until centrifugation (10 minutes at 4500 x g, 4 °C). Plasma was prepared within 45 min after collection, frozen and stored at -80 °C until analysis by LC-MS. […]
clinical signs observed after dosing.
Bioanalysis of pharmacokinetic samples from mice and from rat
First, a calibration curve was prepared by spiking different concentrations of L2 and H2 into mouse plasma, rat plasma or mouse urine (matrix for mouse and rat PK samples) from CD-1 mice. Glipizide was used as an internal standard. In addition, quality control samples (QCs) were prepared for L2 and H2 in plasma and urine. The following extraction procedures were used: 7.5 µl of a plasma sample or 15 µl of a urine sample (calibration samples, QCs or PK samples) was extracted with 35 µl of methanol containing 12.5 ng/ml of glipizide as internal standard for 15 min at 2000 rpm on an Eppendorf MixMate vortex mixer. Then samples were spun down at 15870 x g for 10 min. Supernatants were transferred to standard HPLC-glass vials. Samples from the mouse PK study with H2 in mice and from the rat PK study with L2 were analyzed via HPLC-MS/MS as described in the HPLC-MS analysis section above. PK samples from the mouse PK study with L2 were analyzed using an Agilent 1290 Infinity II HPLC system coupled to an AB Sciex QTrap 7500 mass spectrometer. LC conditions were the same as for the analysis of the samples from the mouse PK study with H2 and from the rat PK study with L2. Mass transitions for controls and compounds are depicted in the following table for the AB Sciex Trap 7500 mass spectrometer.
Peaks of PK samples were quantified using the calibration curve. The accuracy of the calibration curve was determined using QCs independently prepared on different days. […]

On to `O=C(CCc1ccc(O[C@@H]2O[C@H](CO)[C@H](O)[C@H](O)[C@H]2O)cc1)Nc1ccc(CCc2ccc(NC(=O)CCc3ccc(O[C@@H]4O[C@H](CO)[C@H](O)[C@H](O)[C@H]4O)cc3)cc2S(=O)(=O)O)c(S(=O)(=O)O)c1` [Compound L2], for which the “L2 in rat urine” value (24 h after administration, 10 mg kg^−1 i.v.) is listed as “high levels”. For the same molecule, the half-life (male, Sprague-Dawley, iv, rat plasma, 10 mg kg^−1 i.v., N=3) stood at 37 ± 12 min. Besides, the AUC (male, Sprague-Dawley, iv, rat plasma, 10 mg kg^−1 i.v., read-out: area under the curve (AUC)) came to 19.7 ± 12.8 µM·h. In addition, for the setting “male, Sprague-Dawley, iv, rat plasma, 10 mg kg^−1 i.v., read-out: mean residence time (converted)”, the MRT is 41 min. In addition, the clearance (male, Sprague-Dawley, plasma, iv, rat, 10 mg kg^−1 i.v.) worked out at 9.84 ± 5 mL/min/kg. In addition, the Vd (male, Sprague-Dawley, plasma, iv, rat, 10 mg kg^−1 i.v., read-out: distribution volume VD) was determined as 0.46 L/kg. Under “rat plasma, 10 mg kg^−1 i.v.”, the “Time plasma concentration exceeds on-target affinity” value is “at least 6 h”. Moreover, the “Behavior and clinical signs after dosing” value (rat, 10 mg/kg i.v.) is given as “normal behavior”.
